{"source": "patent US20220161456A1", "about": "“S[…] PRESERVATIVE COMPOSITION COMPRISING POLYMERIC BETAINE AND CARBAMATE” (Troy Corporation, priority 2019, published 2022)", "key": {"[1]": {"system": "Aspergillus niger (ATCC #6275)", "test": "EUCAST 96-well plate fungal growth inhibition (MIC)", "format": "cell-based", "parameters": "key to growth of Aspergillus niger in 96-well plates: (+) in each block indicates growth; (−) indicates no growth, i.e., the inhibitor was effective", "settings": "for MIC: Aspergillus niger ATCC 6275, 3 days at 35° C.", "protocol": "(§1) (A) 0.17 g of 60% DPAB aqueous solution (ProTek® PBT or Polymeric Betaine EP or Polymeric Betaine Technical Grade Active Ingredient Wood Preservative, Troy Chemical Corporation, Newark, N.J.) was diluted in 9.83 g ethanol by stirring to form a concentrate containing 1% DPAB.\n(§2) (B) 0.25 g of 40% IPBC solvent solution (Polyphase® AF-1, Troy Chemical Corporation, Newark, N.J.) was diluted in 9.75 g ethanol by stirring to form a concentrate containing 1% IPBC.\n(§3) (C) 21.04 g of 60% DPAB aqueous solution (ProTek® PBT or Polymeric Betaine EP or Polymeric Betaine Technical Grade Active Ingredient Wood Preservative, Troy Chemical Corporation, Newark, N.J.), 6.25 g of 40% IPBC solvent solution (Polyphase AF-1, Troy Chemical Corporation, Newark, N.J.) and 22.74 g of ethanol were mixed and stirred. The resulting concentrate contained 25% polymeric betaine and 5% IPBC. The weight ratio of polymeric betaine to IPBC was 5:1. 0.33 g of this IPBC/polymeric betaine concentrate was diluted in 9.67 g of ethanol to form a use-dilution containing about 0.83% DPAB and 0.17% IPBC.\n(§4) Solutions prepared as described above were tested in 96-well plates for their ability to inhibit fungal growth. The solutions were tested according to the EUCAST methodology as described in Rodriguez-Tudela et al. 2006 “Antifungal susceptibility testing in Aspergillus spp. according to EUCAST methodology,” the contents of which are incorporated by reference herein. The solutions were checked for inhibition against fungal organisms Aspergillus niger (ATCC #6275), Aureobasidium pullulans (ATCC #9348), Penicillium funiculosum (ATCC #11797) and Trichoderma pseudokoningii (ATCC #26801). This method is described below:\n(§5) (1) Prepared preservative test wells by adding 2 microliters of each 1% preservative solution formulation to 198 microliters of 2xRPMI-MOPS-2% Glucose in each column “1” in duplicate.\n(§6) (2) Added 100 microliters of 2xRPMI-MOPS-2% Glucose to the remaining columns.\n(§7) (3) Performed 2-fold dilutions down the columns to column “12”.\n(§8) (4) Prepared suspension of microorganisms from a 3-5 day old PDA slants by flooding slant with 1 mL deionized water and 0.1% Tween-20.\n(§9) (5) Suspension strength was determined via hemocytometer then adjusted to 1×10^6 spores/mL with sterile deionized water.\n(§10) (6) Added 100 microliters of the microorganism suspension to all wells except for sterility (−) controls containing test media. The water used to prepare the fungal suspensions was added to sterility (−) control wells.\n(§11) (7) The inoculated 96-well plates were incubated for 3 days at 35° C.\n(8) After incubation, fungal growth was evaluated by visual growth in test wells. Minimum inhibitory concentration (MIC) is recorded in ppm and defined as the lowest concentration of fungicide that produces no visual changes in turbidity in the test wells. (+) in each block indicates growth and (−) indicates no growth, i.e., the inhibitor was effective.\n(9) The experiment is only considered valid if growth is observed in the positive (+) control wells and no growth is observed in the negative control wells.\nIn order to show more directly the possible synergy in the invention, the results are presented by applying the Synergy Index (S.I.). Minimal inhibitory concentration of the composition of this invention (mixture of DPAB and IPBC) are analyzed using the following equation:\n(§12) MCA=Concentration of compound A in parts per million, acting alone, which prevents fungal growth at the reference point\n(§13) MCA′=Concentration of compound A in parts per million, in the mixture, which prevents fungal growth at the reference point\n(§14) MCB=Concentration of compound B in parts per million, acting alone, which prevents fungal growth at the reference point\n(§15) MCB′=Concentration of compound B in parts per million, in the mixture, which prevents fungal growth at the reference point\n(§16) When SI is greater than 2, antagonism is indicated. […] When SI is between 0.5 and 2, the action of biocides is additive."}, "[2]": {"system": "Penicillium funiculosum (ATCC #11797)", "test": "EUCAST 96-well plate fungal growth inhibition (MIC)", "format": "cell-based", "parameters": "key to growth of Penicillium funiculosum in 96-well plates: (+) in each block indicates growth; (−) indicates no growth, i.e., the inhibitor was effective", "settings": "for MIC: Penicillium funiculosum ATCC 11797, 3 days at 35° C.", "protocol": "as §1, §2, §3, §4, §5, §6, §7, §8, §9, §10, §11\n(8) After incubation, fungal growth was evaluated by visual growth in test wells. Minimum inhibitory concentration (MIC) is recorded in ppm and defined as the lowest concentration of fungicide that produces no visual changes in turbidity in the test wells.\nMinimal inhibitory concentration of the composition of this invention (mixture of DPAB and IPBC) are analyzed using the following equation:\nas §12, §13, §14, §15, §16"}}}
{"molecule": "CCCCNC(=O)OCC#CI", "note": "[IPBC, 3-iodo-2-propynyl butyl carbamate]", "values": [{"measurement": "MIC", "setting": "[1]", "result": 0.78, "unit": "ppm"}, {"measurement": "growth of Aspergillus niger in 96-well plates", "setting": "[1]; well 1, 50.0 ppm active", "result": "−"}, {"measurement": "growth of Aspergillus niger in 96-well plates", "setting": "[1]; well 2, 25.0 ppm active", "result": "−"}, {"measurement": "growth of Aspergillus niger in 96-well plates", "setting": "[1]; well 3, 12.5 ppm active", "result": "−"}, {"measurement": "growth of Aspergillus niger in 96-well plates", "setting": "[1]; well 4, 6.25 ppm active", "result": "−"}, {"measurement": "growth of Aspergillus niger in 96-well plates", "setting": "[1]; well 5, 3.13 ppm active", "result": "−"}, {"measurement": "growth of Aspergillus niger in 96-well plates", "setting": "[1]; well 6, 1.56 ppm active", "result": "−"}, {"measurement": "growth of Aspergillus niger in 96-well plates", "setting": "[1]; well 7, 0.78 ppm active", "result": "−"}, {"measurement": "growth of Aspergillus niger in 96-well plates", "setting": "[1]; well 8, 0.39 ppm active", "result": "+"}, {"measurement": "growth of Aspergillus niger in 96-well plates", "setting": "[1]; well 9, 0.20 ppm active", "result": "+"}, {"measurement": "growth of Aspergillus niger in 96-well plates", "setting": "[1]; well 10, 0.10 ppm active", "result": "+"}, {"measurement": "growth of Aspergillus niger in 96-well plates", "setting": "[1]; well 11, 0.05 ppm active", "result": "+"}, {"measurement": "growth of Aspergillus niger in 96-well plates", "setting": "[1]; well 12, 0.02 ppm active", "result": "+"}, {"measurement": "MIC", "setting": "[2]", "result": 0.78, "unit": "ppm"}, {"measurement": "growth of Penicillium funiculosum in 96-well plates", "setting": "[2]; well 1, concentration 50.00", "result": "−"}, {"measurement": "growth of Penicillium funiculosum in 96-well plates", "setting": "[2]; well 2, concentration 25.00", "result": "−"}, {"measurement": "growth of Penicillium funiculosum in 96-well plates", "setting": "[2]; well 3, concentration 12.50", "result": "−"}, {"measurement": "growth of Penicillium funiculosum in 96-well plates", "setting": "[2]; well 4, concentration 6.25", "result": "−"}, {"measurement": "growth of Penicillium funiculosum in 96-well plates", "setting": "[2]; well 5, concentration 3.13", "result": "−"}, {"measurement": "growth of Penicillium funiculosum in 96-well plates", "setting": "[2]; well 6, concentration 1.56", "result": "−"}, {"measurement": "growth of Penicillium funiculosum in 96-well plates", "setting": "[2]; well 7, concentration 0.78", "result": "−"}, {"measurement": "growth of Penicillium funiculosum in 96-well plates", "setting": "[2]; well 8, concentration 0.39", "result": "+"}, {"measurement": "growth of Penicillium funiculosum in 96-well plates", "setting": "[2]; well 9, concentration 0.20", "result": "+"}, {"measurement": "growth of Penicillium funiculosum in 96-well plates", "setting": "[2]; well 11, concentration 0.05", "result": "+"}, {"measurement": "growth of Penicillium funiculosum in 96-well plates", "setting": "[2]; well 12, concentration 0.02", "result": "+"}]}
{"molecule": "didecyl bis(hydroxyethyl) ammonium borate [DPAB]", "values": [{"measurement": "MIC", "setting": "[1]", "result": 12.50, "unit": "ppm"}, {"measurement": "growth of Aspergillus niger in 96-well plates", "setting": "[1]; well 1, 50.0 ppm active", "result": "−"}, {"measurement": "growth of Aspergillus niger in 96-well plates", "setting": "[1]; well 2, 25.0 ppm active", "result": "−"}, {"measurement": "growth of Aspergillus niger in 96-well plates", "setting": "[1]; well 3, 12.5 ppm active", "result": "−"}, {"measurement": "growth of Aspergillus niger in 96-well plates", "setting": "[1]; well 4, 6.25 ppm active", "result": "+"}, {"measurement": "growth of Aspergillus niger in 96-well plates", "setting": "[1]; well 5, 3.13 ppm active", "result": "+"}, {"measurement": "growth of Aspergillus niger in 96-well plates", "setting": "[1]; well 6, 1.56 ppm active", "result": "+"}, {"measurement": "growth of Aspergillus niger in 96-well plates", "setting": "[1]; well 7, 0.78 ppm active", "result": "+"}, {"measurement": "growth of Aspergillus niger in 96-well plates", "setting": "[1]; well 8, 0.39 ppm active", "result": "+"}, {"measurement": "growth of Aspergillus niger in 96-well plates", "setting": "[1]; well 9, 0.20 ppm active", "result": "+"}, {"measurement": "growth of Aspergillus niger in 96-well plates", "setting": "[1]; well 10, 0.10 ppm active", "result": "+"}, {"measurement": "growth of Aspergillus niger in 96-well plates", "setting": "[1]; well 11, 0.05 ppm active", "result": "+"}, {"measurement": "growth of Aspergillus niger in 96-well plates", "setting": "[1]; well 12, 0.02 ppm active", "result": "+"}, {"measurement": "MIC", "setting": "[2]", "result": 6.25, "unit": "ppm"}, {"measurement": "growth of Penicillium funiculosum in 96-well plates", "setting": "[2]; well 1, concentration 50.00", "result": "−"}, {"measurement": "growth of Penicillium funiculosum in 96-well plates", "setting": "[2]; well 2, concentration 25.00", "result": "−"}, {"measurement": "growth of Penicillium funiculosum in 96-well plates", "setting": "[2]; well 3, concentration 12.50", "result": "−"}, {"measurement": "growth of Penicillium funiculosum in 96-well plates", "setting": "[2]; well 4, concentration 6.25", "result": "−"}, {"measurement": "growth of Penicillium funiculosum in 96-well plates", "setting": "[2]; well 5, concentration 3.13", "result": "+"}, {"measurement": "growth of Penicillium funiculosum in 96-well plates", "setting": "[2]; well 6, concentration 1.56", "result": "+"}, {"measurement": "growth of Penicillium funiculosum in 96-well plates", "setting": "[2]; well 7, concentration 0.78", "result": "+"}, {"measurement": "growth of Penicillium funiculosum in 96-well plates", "setting": "[2]; well 8, concentration 0.39", "result": "+"}, {"measurement": "growth of Penicillium funiculosum in 96-well plates", "setting": "[2]; well 9, concentration 0.20", "result": "+"}, {"measurement": "growth of Penicillium funiculosum in 96-well plates", "setting": "[2]; well 10, concentration 0.10", "result": "+"}, {"measurement": "growth of Penicillium funiculosum in 96-well plates", "setting": "[2]; well 11, concentration 0.05", "result": "+"}, {"measurement": "growth of Penicillium funiculosum in 96-well plates", "setting": "[2]; well 12, concentration 0.02", "result": "+"}]}
